Assay results taken from the supplement of paper PMC10627819.

Columns and labels:
B. subtilis 168 = experiment: fitness (endpoint OD595 vs no drug) (fraction); higher = more growth
In short: (§1)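 In 384-well plates at 37 °C, cultures began at OD595 0.01 in 30 µl, with 55 µl used for S. pneumoniae. OD595 readings every 30 min for 14 h were corrected by the first reading. Fitness divides the stationary-phase transition optical density by the robust mean of no-drug control wells. The result is capped at 1.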

S. pneumoniae D39V = experiment: as above
In short: as §1
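Also: OD595 on entry to stationary phase over no-drug wells; at most 1.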

O=C(O)[C@H]1/C(=C/CO)O[C@@H]2CC(=O)N21 [Clavulanic acid] + CO/N=C(\C(=O)N[C@@H]1C(=O)N2C(C(=O)O)=C(COC(N)=O)CS[C@H]12)c1ccco1 [Cefuroxime]
fitness, B. subtilis 168
Details | first compound 1.5 µg/mL | first compound 3 µg/mL | first compound 6 µg/mL
partner 0.04875 µg/mL | 0.661 | 0.626 | 0.562
partner 0.0975 µg/mL | 0.651 | 0.607 | 0.542
partner 0.195 µg/mL | – | 0.345 | 0.359

fitness, B. subtilis 168, one replicate
Details | partner 0.39 µg/mL | partner 0.78 µg/mL | partner 1.562 µg/mL | partner 3.125 µg/mL | partner 6.25 µg/mL
first compound 1.5 µg/mL | 0.288 | 0.232 | 0.353 | 0.235 | 0.202
first compound 3 µg/mL | 0.0208 | 0.0871 | 0.319 | 0.276 | 0.238
first compound 6 µg/mL | 0.216 | 0.172 | 0.241 | 0.18 | 0.142

O=C(O)[C@H]1/C(=C/CO)O[C@@H]2CC(=O)N21 [Clavulanic acid] + CO[C@@H]1[C@@H](OC(N)=O)[C@@H](O)[C@H](Oc2ccc3c(O)c(NC(=O)c4ccc(O)c(CC=C(C)C)c4)c(=O)oc3c2C)OC1(C)C [Novobiocin]
fitness, B. subtilis 168
Details | first compound 1.5 µg/mL | first compound 3 µg/mL | first compound 6 µg/mL
partner 0.0125 µg/mL | 0.932 | 0.895 | 0.759
partner 0.025 µg/mL | 0.935 | 0.89 | 0.727
partner 0.05 µg/mL | 0.951 | 0.914 | 0.798

fitness, B. subtilis 168, one replicate
Details | partner 0.1 µg/mL | partner 0.125 µg/mL | partner 0.2 µg/mL | partner 0.25 µg/mL | partner 0.5 µg/mL
first compound 1.5 µg/mL | 0.893 | 0.827 | 0.975 | 0.841 | 0.511
first compound 3 µg/mL | 0.937 | 0.815 | 0.989 | 0.774 | 0.385
first compound 6 µg/mL | 0.827 | 0.775 | 0.796 | 0.726 | 0.209

O=C(O)[C@H]1/C(=C/CO)O[C@@H]2CC(=O)N21 [Clavulanic acid] + CO[C@H]1/C=C/O[C@@]2(C)Oc3c(C)c(O)c4c(O)c(c(/C=N/N5CCN(C)CC5)c(O)c4c3C2=O)NC(=O)/C(C)=C\C=C\[C@H](C)[C@H](O)[C@@H](C)[C@@H](O)[C@@H](C)[C@H](OC(C)=O)[C@@H]1C [Rifampicin]
fitness, S. pneumoniae D39V
Details | first compound 0.5 µg/mL | first compound 1 µg/mL | first compound 2 µg/mL
partner 0.025 µg/mL | ≥ 1 | 0.919 | –
partner 0.1 µg/mL | – | 0.421 | 0.239

S. pneumoniae D39V, partner 0.2 µg/mL, one replicate
Details | fitness
first compound 0.5 µg/mL | 0
first compound 1 µg/mL | 0
first compound 2 µg/mL | 0

O=C(O)[C@H]1/C(=C/CO)O[C@@H]2CC(=O)N21 [Clavulanic acid] + COc1cc(Cc2cnc(N)nc2N)cc(OC)c1OC [Trimethoprim]
fitness, B. subtilis 168, one replicate
Details | partner 0.1 µg/mL | partner 0.2 µg/mL | partner 0.4 µg/mL | partner 1 µg/mL | partner 2 µg/mL
first compound 1.5 µg/mL | 0.89 | 0.757 | 0.559 | 0.507 | 0.392
first compound 3 µg/mL | 0.853 | 0.693 | 0.537 | 0.455 | 0.388
first compound 6 µg/mL | 0.728 | 0.687 | 0.482 | 0.421 | 0.273

fitness, B. subtilis 168
Details | first compound 1.5 µg/mL | first compound 3 µg/mL | first compound 6 µg/mL
partner 0.125 µg/mL | 0.647 | 0.618 | 0.55
partner 0.25 µg/mL | 0.511 | – | –
partner 0.5 µg/mL | 0.505 | 0.494 | 0.457

O=C(O)[C@H]1/C(=C/CO)O[C@@H]2CC(=O)N21 [Clavulanic acid] + C[C@@H](O)[C@H]1C(=O)N2C(C(=O)O)=C(SCCNC=N)C[C@H]12 [Imipenem]
fitness, S. pneumoniae D39V
Details | partner 0.005 µg/mL | partner 0.0065 µg/mL | partner 0.01 µg/mL | partner 0.013 µg/mL | partner 0.02 µg/mL | partner 0.026 µg/mL
first compound 0.5 µg/mL | 0.976 | 0.974 | 0.987 | 0.968 | 0.935 | 0.883
first compound 1 µg/mL | 0.887 | 0.92 | 0.899 | 0.891 | 0.888 | 0.892
first compound 2 µg/mL | 0.737 | 0.82 | 0.724 | 0.791 | 0.655 | 0.789

O=C(O)[C@H]1/C(=C/CO)O[C@@H]2CC(=O)N21 [Clavulanic acid] + C[C@H]1COc2c(N3CCN(C)CC3)c(F)cc3c(=O)c(C(=O)O)cn1c23 [Levofloxacin]
fitness, B. subtilis 168, one replicate
Details | first compound 1.5 µg/mL | first compound 3 µg/mL | first compound 6 µg/mL
partner 0.001 µg/mL | 0.908 | 0.852 | 0.776
partner 0.0078 µg/mL | 0.919 | 0.872 | 0.82

Details | fitness
B. subtilis 168, first compound 1.5 µg/mL, partner 0.002 µg/mL | 0.836
B. subtilis 168, first compound 1.5 µg/mL, partner 0.0039 µg/mL | 0.821
B. subtilis 168, first compound 1.5 µg/mL, partner 0.0312 µg/mL | 0.0412
B. subtilis 168, first compound 1.5 µg/mL, partner 0.0625 µg/mL | 0.0486
B. subtilis 168, first compound 1.5 µg/mL, partner 0.125 µg/mL | 0.0536
B. subtilis 168, first compound 3 µg/mL, partner 0.002 µg/mL | 0.829
B. subtilis 168, first compound 3 µg/mL, partner 0.0039 µg/mL | 0.81
B. subtilis 168, first compound 3 µg/mL, partner 0.0312 µg/mL | 0.0294
B. subtilis 168, first compound 3 µg/mL, partner 0.0625 µg/mL | 0.0351
B. subtilis 168, first compound 3 µg/mL, partner 0.125 µg/mL | 0.0411
B. subtilis 168, first compound 6 µg/mL, partner 0.002 µg/mL | 0.734
B. subtilis 168, first compound 6 µg/mL, partner 0.0039 µg/mL | 0.72
B. subtilis 168, first compound 6 µg/mL, partner 0.0312 µg/mL | 0.0384
B. subtilis 168, first compound 6 µg/mL, partner 0.0625 µg/mL | 0.0352
B. subtilis 168, first compound 6 µg/mL, partner 0.125 µg/mL | 0.0346
S. pneumoniae D39V, first compound 0.5 µg/mL, partner 0.1725 µg/mL | 0.948
S. pneumoniae D39V, first compound 0.5 µg/mL, partner 0.2 µg/mL | 0.914
S. pneumoniae D39V, first compound 0.5 µg/mL, partner 0.345 µg/mL | 0.881
S. pneumoniae D39V, first compound 0.5 µg/mL, partner 0.4 µg/mL | 0.681
S. pneumoniae D39V, first compound 0.5 µg/mL, partner 0.69 µg/mL | 0.61
S. pneumoniae D39V, first compound 0.5 µg/mL, partner 0.8 µg/mL | 0.134
S. pneumoniae D39V, first compound 1 µg/mL, partner 0.1725 µg/mL | 0.927
S. pneumoniae D39V, first compound 1 µg/mL, partner 0.2 µg/mL | 0.805
S. pneumoniae D39V, first compound 1 µg/mL, partner 0.345 µg/mL | 0.842
S. pneumoniae D39V, first compound 1 µg/mL, partner 0.4 µg/mL | 0.599
S. pneumoniae D39V, first compound 1 µg/mL, partner 0.8 µg/mL | 0.242
S. pneumoniae D39V, first compound 2 µg/mL, partner 0.1725 µg/mL | 0.841
S. pneumoniae D39V, first compound 2 µg/mL, partner 0.2 µg/mL | 0.623
S. pneumoniae D39V, first compound 2 µg/mL, partner 0.345 µg/mL | 0.735
S. pneumoniae D39V, first compound 2 µg/mL, partner 0.4 µg/mL | 0.431
S. pneumoniae D39V, first compound 2 µg/mL, partner 0.69 µg/mL | 0.423
S. pneumoniae D39V, first compound 2 µg/mL, partner 0.8 µg/mL | 0.103
